Reference: patent US4797489A, “Adamantyl- and fluorenyl-arylpiperazines and -arylpiperidines” (American Home Products Corp., priority 1987, dated 1989)

Tests used:
[1] = molecular target: T1, 5-HT1A serotonin receptor (Rattus norvegicus, UniProt P19327); experiment: 5-HT1A receptor binding, displacement of ^3 H-8-OH DPAT
T1 construct: 44, 1685-1696 (1985); from tissue
T1 sequence (P19327 1-422): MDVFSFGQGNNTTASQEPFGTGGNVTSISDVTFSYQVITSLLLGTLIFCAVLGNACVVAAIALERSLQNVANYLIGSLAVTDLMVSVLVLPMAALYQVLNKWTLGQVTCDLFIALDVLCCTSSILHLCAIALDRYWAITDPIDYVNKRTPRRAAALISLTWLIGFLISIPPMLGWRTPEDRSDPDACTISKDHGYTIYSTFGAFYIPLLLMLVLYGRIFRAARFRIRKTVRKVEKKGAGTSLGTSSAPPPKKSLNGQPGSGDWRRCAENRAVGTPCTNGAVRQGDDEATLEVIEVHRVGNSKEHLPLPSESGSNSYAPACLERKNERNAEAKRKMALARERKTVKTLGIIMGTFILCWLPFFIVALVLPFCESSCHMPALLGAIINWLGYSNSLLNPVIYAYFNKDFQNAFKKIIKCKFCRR
Text: The serotoninergic properties of the compounds of this invention were established by the procedure of Hall et al., J. Neurochem.

[2] = molecular target: T2, limbic D2 (dopamine) receptor (Rattus norvegicus, UniProt P61169); experiment: D2 receptor affinity, inhibition of ^3 H-spiroperidol (^3 H-spirohaloperidol) binding to limbic brain tissue
T2 construct: from tissue; rat inferred
T2 sequence (P61169 whole entry): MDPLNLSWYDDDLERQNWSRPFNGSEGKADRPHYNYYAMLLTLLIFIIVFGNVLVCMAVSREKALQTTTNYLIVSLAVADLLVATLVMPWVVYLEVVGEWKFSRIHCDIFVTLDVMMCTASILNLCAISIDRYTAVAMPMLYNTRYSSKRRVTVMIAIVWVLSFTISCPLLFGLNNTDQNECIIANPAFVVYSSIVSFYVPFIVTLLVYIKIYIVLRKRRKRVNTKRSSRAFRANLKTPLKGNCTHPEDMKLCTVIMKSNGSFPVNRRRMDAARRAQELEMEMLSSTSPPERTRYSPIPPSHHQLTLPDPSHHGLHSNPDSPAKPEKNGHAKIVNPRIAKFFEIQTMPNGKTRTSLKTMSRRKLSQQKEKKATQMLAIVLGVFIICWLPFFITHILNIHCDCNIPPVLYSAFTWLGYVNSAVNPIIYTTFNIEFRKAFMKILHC

5-HT2 receptor = experiment: 5-HT2 inhibition of ^3 H-spiroperidol binding (rat brain cortex homogenate)
Protocol: 5-HT2 inhibition of ^3 H-spiroperidol is determined in an analogous manner, employing rat brain cortex homogenate as the receptor tissue, following a modification of Fields et al., ibid; Yamamura et al., ibid; and Creese et al., Eu. J. Pharmacol. 49, 20 (1978).

[3] = Barone et al., 1986; cited from earlier work

inhibition at 1 µM ([1]; ^3 H-8-OH DPAT) [%] | inhibition at 1 µM [2] [%] | Compound | other results
100 |  | COc1ccccc1N1CCN(CCOC(=O)c2cccc3c2Cc2ccccc2-3)CC1 [Example 5, 9H-Fluorene-1-carboxylic acid 2-[4-(2-methoxyphenyl)-1-piperazinyl]ethyl ester] | 
69 | 33 | O=C(OCCCN1CCN(c2ncccn2)CC1)C12CC3CC(CC(C3)C1)C2 [Example 7, Tricyclo[3.3.1.1^3,7]decane-1-carboxylic acid 3-[4-(2-pyrimidinyl)-1-piperazinyl]propyl ester] | 
53 |  | O=C(OCCN1CCN(c2cccc(Cl)c2)CC1)c1cccc2c1Cc1ccccc1-2 [Example 8, 9H-Fluorene-1-carboxylic acid 2-[4-(3-chlorophenyl)-1-piperazinyl]ethyl ester] | 
 | 90 | N#Cc1ccccc1N1CCN(CCOC(=O)C23CC4CC(CC(C4)C2)C3)CC1 [Example 10, Tricyclo[3.3.1.1^3,7]decane-1-carboxylic acid [2-[4-(2-cyanophenyl)-1-piperazinyl]ethyl]ester] | 

Further lines, the molecule ahead of its results:

Compound | inhibition at 1 µM ([1]; ^3 H-8-OH DPAT) [%] | inhibition at 1 µM [2] [%] | other results
O=C1CC2(CCCC2)CC(=O)N1CCCCN1CCN(c2ncccn2)CC1 [Buspirone, reference compound] |  |  | inhibition at 0.001 µM ([1]; read-out: percent inhibition (5-HT1A, ^3 H-8-OH DPAT)): 97%
O=C(OCCCN1CCN(c2cccc(Cl)c2)CC1)C12CC3CC(CC(C3)C1)C2 [Example 1, Tricyclo[3.3.1.1^3,7]decane-1-carboxylic acid 3-[4-(3-chlorophenyl)-1-piperazinyl]propyl ester] | 80 | 67 | 
O=C(OCCN1CCN(c2ncccn2)CC1)C12CC3CC(CC(C3)C1)C2 [Example 2, Tricyclo[3.3.1.1^3,7]decane-1-carboxylic acid 2-[4-(2-pyrimidinyl)-1-piperazinyl]ethyl ester] |  | 26 | Ki ([1]; ^3 H-8-OH DPAT, Ki calculated from IC50 values): 8.5 nM
COc1ccccc1N1CCN(CCCOC(=O)C23CC4CC(CC(C4)C2)C3)CC1 [Example 3, Tricyclo[3.3.1.1^3,7]decane-1-carboxylic acid 3-[4-(2-methoxyphenyl)-1-piperazinyl]propyl ester] | 100 | 90 | 
CC12CC3CC(C1)CC(CC(=O)OCCN1CCN(c4ncccn4)CC1)(C3)C2 [Example 4, 3-Methyltricyclo[3.3.1.1^3,7]decane-1-acetic acid 2-[4-(2-pyrimidinyl)-1-piperazinyl]ethyl ester] | 72 | 39 | 
O=C(OCCN1CCC(=C(c2ccc(F)cc2)c2ccc(F)cc2)CC1)C12CC3CC(CC(C3)C1)C2 [Example 11, Tricyclo[3.3.1.1^3,7]decane-1-carboxylic acid 2-[4-[bis(4-fluorophenyl)methylene]-1-piperidinyl]ethyl ester] | 95 | 100 | 5HT2 Receptor Binding % Inhibition at 1 μM (5-HT2 receptor): 98%
CC12CC3CC(C1)CC(CC(=O)OCCN1CCC(=C(c4ccc(F)cc4)c4ccc(F)cc4)CC1)(C3)C2 [Example 12, Tricyclo[3.3.1.1^3,7]decane-3-methyl-1-acetic acid 2-[4-[bis(4-fluorophenyl)methylene]-1-piperidinyl]ethyl ester] |  | 36 | 5HT2 Receptor Binding % Inhibition at 1 μM (5-HT2 receptor): 63%
Cc1nc2sccn2c(=O)c1CCN1CCC(=C(c2ccc(F)cc2)c2ccc(F)cc2)CC1 [Ritanserin] |  |  | clinical efficacy as anxiolytic-antidepressant agents [3]: demonstrated clinical efficacy
